Experimental data as given in patent publication US20110028566A1, “COMPOSITIONS AND PRODUCTS CONTAINING CYCLOALIPHATIC DIOL ANTIMICROBIAL AGENTS AND METHODS OF USING THE COMPOSITIONS AND PRODUCTS” (EASTMAN CHEMICAL COMPANY, priority 2009, published 2011).

Legend:
Format in all cases: cell-based
C. albicans = assay: MIC comparison of 1,1- and 1,4-CHDM, 96-well plates; conditions: for MIC Day 1: 24 H; for MIC Day 2: 48 H; for MIC Day 3: 72 H
Description: (§1) The antimicrobial activities of 1,4-cyclohexanedimethanol (1,4-CHDM) and 1,1-cyclohexanedimethanol (1,1-CHDM) have been determined. […] MICs were individually calculated for three consecutive days with both 1,1-cyclohexanedimethanol and the 31% cis:69% trans mixture of 1,4-cyclohexanedimethanol. Both compounds were evaluated against a panel of five strains of microorganisms.
(§2) Strains P. aeruginosa, C. albicans, E. coli, A. niger and S. aureus were purchased from the American Type Culture Collection (Manassas, Va.). NUNC flat bottom polystyrene 96 well microtiter plates (NUNC Cat# 269787), and 17×100 mm culture tubes (VWR Cat# 60818-703) were purchased from VWR International, LLC (West Chester, Pa.). Eastman CHDM-D90 and 1,1-CHDM (>99.7% by GC and verified by NMR) were provided by Eastman Chemical Company (Kingsport, Tenn.). All bacterial cultures were grown in BD BBL trypticase soy broth, and all fungal cultures were grown in sabourand dextrose broth purchased from VWR International, LLC (West Chester, Pa.). Absorbance measurements were taken with a TECAN GENios Pro microplate reader.
(§3) A small loopful of inoculum was transferred from a freshly streaked agar plate of each strain to 5 ml of sterile media in a 17×100 mm culture tube. The bacteria were incubated for 20-28 hours and C. albicans for 44-52 hours.
(§4) Stock solutions were prepared for each isomer in the corresponding growth media at a concentration of 5% w/v (1,4-CHDM) or 2.25% w/v (1,1-CHDM). Serial dilutions were prepared with a dilution ratio of 1:1.3333 such that one log range was covered with nine dilutions.
(§5) Two-hundred microliters of each CHDM concentration was transferred into 4 wells of a sterile 96-well plate. Four extra wells of the highest concentration were filled for the uninoculated high-level controls. Eight additional wells were filled with only sterile broth to serve as negative and positive controls. The last well of each CHDM isomer dilution was left uninoculated to serve as controls for background turbidity associated with test compounds. Plates with bacteria or C. albicans were inoculated with 2 μl of seed culture for final concentration of roughly 10^6 CFU/ml for the bacteria and 10^5 CFU/ml for the C. albicans. Plates with A. niger were inoculated with 2 μl of spore suspension prepared above.
(§6) Each plate was covered and incubated at the appropriate temperature and turbidity as a measure of cell density was determined via absorbance measurement at 612 nm using a microplate reader. Measurements were taken at 24, 48 and 72 hours for each plate. The raw data was exported into an Excel spreadsheet and the MIC values were determined and expressed as wt %. The absorbance of each inoculated CHDM well was retrieved by first subtracting out the average reading for each uninoculated well, then by comparison to a positive threshold to determine positive or negative status for growth. The positive threshold was calculated by multiplication of the average absorbance for the inoculated media-only wells by 0.05. The MIC was determined as the lowest test concentration resulting in all three replicate wells displaying values below the positive threshold.

P. aeruginosa = assay: as above; conditions: for MIC Day 1: 24 H; for MIC Day 2: 48 H; for MIC Day 3: 72 H
Description: as §1, §2, §3, §4, §5, §6

E. coli = assay: as above; conditions: for MIC Day 1: 24 H; for MIC Day 2: 48 H; for MIC Day 3: 72 H
Description: as §1, §2, §3, §4, §5, §6

S. aureus = assay: as above; conditions: for MIC Day 1: 24 H; for MIC Day 2: 48 H; for MIC Day 3: 72 H
Description: as §1, §2, §3, §4, §5, §6

A. niger = assay: as above; conditions: for MIC Day 1: 24 H; for MIC Day 2: 48 H; for MIC Day 3: 72 H
Description: as §1, §2
A. niger was cultured on sabourand dextrose agar plates until a heavy concentration of black spores were visibly apparent. Spores were harvested from the plate by suspension in 3 ml of sabourand dextrose broth utilizing a sterile plastic spreader and sterile transfer pipette.
as §4, §5, §6

[1] = test system: Corynebacterium xerosis ATCC #373; assay: Synergy testing in brain heart infusion media, 96-well plates; conditions: for % EHG / SI: CHDM with EHG; for % EHG: relative to EHG alone; for QB/b (EHG): inhibitory concentration of EHG alone or in combination with CHDM, plate EX194-195-EHG-Syn1; for SI: synergy index
Description: MICs were determined using a high-throughput microplate method. Individual antimicrobial agents were added to TSB (pH 7.3) for bacterial testing or SDB (pH 5.6) for fungal testing at the highest concentration to be tested. A serial dilution series was prepared at a dilution ratio of 1:1.3333 such that a one log range was covered in nine dilutions. Two-hundred microliters of the diluted antimicrobial agents were dispensed into four wells each of a sterile, 96-well, flat-bottom microplate (Nalge Nunc International). Four additional wells of the highest concentration were dispensed to serve as uninoculated high-level controls. Eight additional wells containing only broth medium were also prepared, four to serve as negative controls and four as positive controls. Three wells of each antimicrobial agent dilution were inoculated with one of the test strains in Table 7. The final well of each antimicrobial agent dilution was left uninoculated to serve as a control (and means of compensating) for any absorbance/turbidity due to the test compounds.
The individual antimicrobial agents listed in Table 8 were tested in combination with CHDM. The MIC values determined in the individual antimicrobial agent testing described above were used to establish a target MIC. In each experiment, MIC values for the individual antimicrobial agents and CHDM were determined in order to eliminate any variability due to comparison of data from different dates. Testing was done over a range of four concentrations separated by a factor of 1.3333 as described above. The four concentrations were the target MIC plus one dilution level higher and two dilution levels lower than the target. Combinations of antimicrobial agents and CHDM were made at 50% of the target MIC values and the higher and lower individual levels. Additionally, 50% level series were also tested with the antimicrobial agent or CHDM at one dilution level lower than the target level. The method of Kull et. al. (F. C. Kull et al., Applied Microbiology, 9, p 538-541 (1961)) was used to determine whether there was synergistic activity between CHDM and each antimicrobial agent for inhibition of each of the five microbes. MICs for the individually-tested CHDM and antimicrobial agent, as well as the concentration of CHDM and antimicrobial agent in the combination MIC were used to calculate a synergy index (SI) according to the equation: […]
where Qa and Qb are the minimum inhibitory concentrations for CHDM and a antimicrobial agent, respectively, when tested independently, and QA and QB are the concentrations of CHDM and a antimicrobial agent, respectively, in combination at an inhibitory concentration. Accordingly, synergy is defined as a SI less than one.
Experiments were also conducted using Corynebacterium xerosis, which is a bacterium known to cause body odor. […] The Corynebacterium xerosis bacterium used in this example was ATCC #373. The seed culture was grown in brain heart infusion medium. Assays were performed in brain heart infusion media in 96-well plates as described in Example 2. The brain heart infusion medium was at a pH of about 7.4. All growth was conducted at 37° C.

SMILES | MIC Day 1 (C. albicans) [wt %] | MIC Day 2 (C. albicans) [wt %] | MIC Day 3 (C. albicans) [wt %] | MIC Day 1 (P. aeruginosa) [wt %] | MIC Day 2 (P. aeruginosa) [wt %] | MIC Day 3 (P. aeruginosa) [wt %] | MIC Day 1 (E. coli) [wt %] | MIC Day 2 (E. coli) [wt %] | MIC Day 3 (E. coli) [wt %] | MIC Day 1 (S. aureus) [wt %] | MIC Day 2 (S. aureus) [wt %] | MIC Day 3 (S. aureus) [wt %] | MIC Day 1 (A. niger) [wt %] | MIC Day 2 (A. niger) [wt %] | MIC Day 3 (A. niger) [wt %] | further results
OCC1(CO)CCCCC1 [1,1 CHDM] | 2.25 | 2.25 | 2.25 | 1.26 | 1.26 | 1.26 | 1.26 | 1.26 | 1.26 | 2.25 | 2.25 | 2.25 | >2.25 | >2.25 | >2.25 | –
OCC1CCC(CO)CC1 (stereo not drawn) [1,4 CHDM] | 3.75 | 4.99 | >5.0 | 1.58 | 1.58 | 2.11 | 1.58 | 1.58 | 1.58 | 3.75 | 3.75 | 3.75 | >5.0 | 3.75 | 3.75 | –
CCCCC(CC)COCC(O)CO (stereo not drawn) [EHG, ethylhexyl glycerin, reference compound] | – | – | – | – | – | – | – | – | – | – | – | – | – | – | – | % EHG ([1]; Day 2): 100.0%; QB/b (EHG) ([1]; Day 2): 0.107; SI ([1]; Day 2): 1.00; % EHG ([1]; Day 3): 100.0%; QB/b (EHG) ([1]; Day 3): 0.080; SI ([1]; Day 3): 1.00
